This is an account of results in publication PMC7481482, “Development of Anthraquinone Derivatives as Ectonucleoside Triphosphate Diphosphohydrolase (NTPDase) Inhibitors With Selectivity for NTPDase2 and NTPDase3” (Frontiers in Pharmacology, 2020).

Structures can show the parent of a compound that is named as a salt.

One data set concerns the target T1, human NTPDase1 (Homo sapiens, UniProt P49961).
T1 construct: expressed in transfected cells; host or cells: COS-7 cells (membrane preparation)
T1 sequence (P49961 1-510): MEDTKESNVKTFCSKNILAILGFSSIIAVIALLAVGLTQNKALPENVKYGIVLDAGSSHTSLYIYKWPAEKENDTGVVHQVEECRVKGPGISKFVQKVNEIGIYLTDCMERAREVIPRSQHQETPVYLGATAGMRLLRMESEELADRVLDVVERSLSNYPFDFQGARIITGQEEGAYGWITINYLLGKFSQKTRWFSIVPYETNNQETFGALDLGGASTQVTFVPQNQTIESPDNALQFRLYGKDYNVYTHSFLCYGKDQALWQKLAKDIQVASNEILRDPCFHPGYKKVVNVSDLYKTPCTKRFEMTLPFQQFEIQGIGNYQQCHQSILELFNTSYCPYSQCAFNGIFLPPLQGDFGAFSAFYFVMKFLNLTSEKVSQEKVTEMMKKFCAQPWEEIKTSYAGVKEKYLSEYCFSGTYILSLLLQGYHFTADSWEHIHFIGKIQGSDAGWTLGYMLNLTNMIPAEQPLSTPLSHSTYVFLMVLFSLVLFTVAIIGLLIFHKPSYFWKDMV
Put plainly: Malachite green assay, human NTPDase1. The following applies: 2 μM compound; 50 µM ATP; COS-7 membrane preparation; read-out: % inhibition at 2 μM concentration, NTPDase1. Format: biochemical. How it is done:
(§1) Membrane preparations expressing human NTPDase1, -2, -3, or -8, respectively, were obtained as previously described ([Sévigny et al., 1997]; [Cogan et al., 1999]; [Kukulski et al., 2005]; [Lecka et al., 2013]; [Lee et al., 2018]). Enzyme inhibition assays were performed using the malachite green assay in analogy to published procedures with some modifications ([Dou et al., 2018]). The reaction buffer contained 10 mM HEPES, 2 mM CaCl2, and 1 mM MgCl2 (pH 7.4) in a final volume of 50 μL in transparent 96-well half-area plates. The compounds were initially tested at a final concentration of 2 µM using a COS-7-cell membrane preparation expressing the appropriate NTPDase isoenzyme (protein amount: 143 ng for NTPDase1, 175 ng for NTPDase2, 152 ng for NTPDase3, and 175 ng for NTPDase8). Preincubated of the enzyme preparations was perfomred at 37°C in the presence or absence of test compounds with gentle shaking (Eppendorf Thermomixer comfort at 500 rpm) for 5 min. […] ([Kukulski et al., 2005]). After 15 min of incubation at 37°C with gentle shaking, the reaction was stopped by the addition of the detection reagents (20 µL malachite green solution, 0.6 mM, and 30 µL of ammonium molybdate solution, 20 mM, in 1.5 M sulfuric acid). The released inorganic phosphate was quantified after 20 min of gentle shaking at 25°C by measuring the absorption of the malachite green-phosphomolybdate complex at 600 nm using a BMG PheraStar FS plate reader (BMG Labtech GmbH, Ortenberg, Germany). The corrected absorption was calculated by subtracting the absorption of the negative control samples, which were incubated with previously denatured enzyme (90°C, 15 min). Full concentration-inhibition curves were determined with inhibitor concentrations ranging from 0.03 to 30 µM in the presence of 2% DMSO. Inhibition-type experiments were performed with 25, 50, 100, 150 and 200 µM ATP as substrate for NTPDase2 in the presence of inhibitor 20 (0, 0.25, 0.5, and 1 µM) and 25, 50, 100 and 150 µM ATP substrate for NTPDase3 and compound 42 (0.25, 0.5, and 1 µM). For all of the presented data, at least three independent experiments were performed, and IC50 values were calculated by GraphPad Prism 8 software.
(§2) Inhibition of human NTPDases was performed using the malachite green assay, which was established on a robotic system (Z’ factors > 0.70) ([Baykov et al., 1988]; [Fiene et al., 2015]). The malachite green assay enables the detection of the phosphate produced by the enzymatic hydrolysis of nucleotides. A fixed substrate concentration of 50 µM ATP for NTPDase1 and 100 µM for NTPDase2, -3, and -8 was employed. Test compounds were initially screened at a concentration of 2 μM. […] A total of 48 synthesized anthraquinone derivatives including 14 new compounds not previously described in the literature were evaluated for their inhibitory activity at human NTPDase1, -2, -3, and -8 (for results see Table 1).

The next data set addresses T2, human NTPDase2 (Homo sapiens, UniProt Q9Y5L3).
T2 construct: expressed in transfected cells; host or cells: COS-7 cells (membrane preparation)
T2 sequence (Q9Y5L3 1-495): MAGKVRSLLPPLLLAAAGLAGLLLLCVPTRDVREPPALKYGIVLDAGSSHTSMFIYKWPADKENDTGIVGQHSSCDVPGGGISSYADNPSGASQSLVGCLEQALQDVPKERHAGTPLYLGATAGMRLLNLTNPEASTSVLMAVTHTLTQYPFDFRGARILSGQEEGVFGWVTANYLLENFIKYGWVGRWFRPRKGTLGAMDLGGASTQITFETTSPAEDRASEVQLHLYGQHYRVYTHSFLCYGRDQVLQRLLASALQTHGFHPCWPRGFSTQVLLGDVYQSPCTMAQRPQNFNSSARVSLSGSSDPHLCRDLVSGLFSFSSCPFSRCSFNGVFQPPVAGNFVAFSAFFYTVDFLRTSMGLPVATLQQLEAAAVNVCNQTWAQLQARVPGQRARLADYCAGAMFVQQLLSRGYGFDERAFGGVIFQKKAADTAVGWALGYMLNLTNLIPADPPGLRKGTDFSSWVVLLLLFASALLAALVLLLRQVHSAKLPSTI
Put plainly: Malachite green assay, human NTPDase2. The following applies: 100 µM ATP, COS-7 membrane preparation; for IC50: read-out: IC50 ± SEM, NTPDase2; for inhibition at 2 µM: 2 μM compound, read-out: % inhibition at 2 μM concentration, NTPDase2. Format: biochemical. As for the experimental part:
as §1, §2

The next data set addresses T3, human NTPDase3 (Homo sapiens, UniProt O75355).
T3 construct: expressed in transfected cells; host or cells: COS-7 cells (membrane preparation)
T3 sequence (O75355 1-529): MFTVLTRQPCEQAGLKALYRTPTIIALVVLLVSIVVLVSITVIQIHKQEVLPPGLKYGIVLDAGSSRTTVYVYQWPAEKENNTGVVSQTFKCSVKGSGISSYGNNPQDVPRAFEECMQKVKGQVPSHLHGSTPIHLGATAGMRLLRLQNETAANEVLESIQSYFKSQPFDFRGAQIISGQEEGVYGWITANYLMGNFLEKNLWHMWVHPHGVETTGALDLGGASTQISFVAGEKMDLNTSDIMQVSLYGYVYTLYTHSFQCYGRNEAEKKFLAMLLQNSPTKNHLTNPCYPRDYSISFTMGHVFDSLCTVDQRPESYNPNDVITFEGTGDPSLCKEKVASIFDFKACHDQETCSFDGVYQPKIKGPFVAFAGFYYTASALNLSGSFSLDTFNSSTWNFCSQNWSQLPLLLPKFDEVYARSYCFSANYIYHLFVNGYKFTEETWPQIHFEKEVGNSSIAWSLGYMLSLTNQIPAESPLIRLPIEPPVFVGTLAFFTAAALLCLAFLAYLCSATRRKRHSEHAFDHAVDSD
Put plainly: Malachite green assay, human NTPDase3. Format: biochemical. The following applies: 100 µM ATP, COS-7 membrane preparation; for inhibition at 2 µM: 2 μM compound, read-out: % inhibition at 2 μM concentration, NTPDase3. How it is done: as §1, §2

For the next data set, the target named is T4, human NTPDase8 (Homo sapiens, UniProt Q5MY95).
T4 construct: expressed in transfected cells; host or cells: COS-7 cells (membrane preparation)
T4 sequence (Q5MY95 1-495): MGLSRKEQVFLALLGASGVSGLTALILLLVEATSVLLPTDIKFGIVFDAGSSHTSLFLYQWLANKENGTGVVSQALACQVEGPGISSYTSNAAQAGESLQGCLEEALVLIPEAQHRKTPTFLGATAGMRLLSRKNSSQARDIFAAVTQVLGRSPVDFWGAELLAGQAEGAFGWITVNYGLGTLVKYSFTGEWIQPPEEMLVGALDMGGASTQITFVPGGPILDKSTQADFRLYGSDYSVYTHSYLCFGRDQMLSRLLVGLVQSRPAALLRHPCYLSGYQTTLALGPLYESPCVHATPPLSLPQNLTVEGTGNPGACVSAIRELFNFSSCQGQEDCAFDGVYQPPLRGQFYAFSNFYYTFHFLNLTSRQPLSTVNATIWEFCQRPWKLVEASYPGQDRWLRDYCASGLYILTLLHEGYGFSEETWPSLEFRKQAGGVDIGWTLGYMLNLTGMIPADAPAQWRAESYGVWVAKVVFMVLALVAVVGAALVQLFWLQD
Put plainly: Malachite green assay, human NTPDase8. Format: biochemical. The following applies: 2 μM compound; 100 µM ATP; COS-7 membrane preparation; read-out: % inhibition at 2 μM concentration, NTPDase8. As for the experimental part: as §1, §2

On to `Nc1c(S(=O)(=O)[O-])cc(Nc2ccc(Sc3ccc(Cl)cc3)cc2)c2c1C(=O)c1ccccc1C2=O.[Na+]` [Compound 45, Sodium 1-amino-4-[4-(4-chlorophenylthio)phenylamino]-9,10-dioxo-9,10-dihydroanthracene-2-sulfonate], for which the melting point is more than 300 °C. Moreover, the inhibition at 2 µM at human NTPDase1 is 52%. For the same compound, the IC50 at human NTPDase2 was determined as 1080 ± 80 nM. Besides, the inhibition at 2 µM at human NTPDase3 turned out to be 42%. Further, on human NTPDase8, the inhibition at 2 µM was determined as 21%.

On to `Nc1c(S(=O)(=O)[O-])cc(Nc2ccc(O)cc2F)c2c1C(=O)c1ccccc1C2=O.[Na+]` [Compound 37, Sodium 1-amino-4-(2-fluoro-4-hydroxyphenylamino)-9,10-dioxo-9,10-dihydroanthracene-2-sulfonate], for which the melting point is more than 300 °C. Moreover, the inhibition at 2 µM on human NTPDase1 was -8%. The inhibition at 2 µM at human NTPDase2 was determined as 5%. At human NTPDase3, the inhibition at 2 µM was -12%. Also, the inhibition at 2 µM on human NTPDase8 is -6%.

The compound `Nc1c(S(=O)(=O)[O-])cc(Nc2ccccc2CO)c2c1C(=O)c1ccccc1C2=O.[Na+]` [Compound 27, Sodium 1-amino-4-(2-(hydroxymethyl)phenylamino)-9,10-dioxo-9,10-dihydroanthracene-2-sulfonate] displayed a melting point of more than 300 °C. Also, the inhibition at 2 µM on human NTPDase1 is -1%. The inhibition at 2 µM on human NTPDase2 stood at 12%. Further, at human NTPDase3, the inhibition at 2 µM stood at 11%. In addition, at human NTPDase8, the inhibition at 2 µM stood at 4%.

`Nc1c(S(=O)(=O)[O-])cc(Nc2cccc(F)c2C(=O)O)c2c1C(=O)c1ccccc1C2=O.[Na+]` [Compound 35, Sodium 1-amino-4-(2-carboxy-3-fluorophenylamino)-9,10-dioxo-9,10-dihydroanthracene-2-sulfonate] gave a melting point of more than 300 °C. Besides, the inhibition at 2 µM at human NTPDase1 was -21%. For the same compound, on human NTPDase2, the inhibition at 2 µM is -3%. Besides, on human NTPDase3, the inhibition at 2 µM stood at 32%. In addition, on human NTPDase8, the inhibition at 2 µM was -10%.

For `Nc1c(S(=O)(=O)O)cc(Nc2ccc(Sc3ccccc3)c(Cl)c2)c2c1C(=O)c1ccccc1C2=O` (as salt: sodium) [Compound 48, Sodium 1-amino-4-(3-chloro-4-phenylsulfanyl)-phenylamino-9,10-dioxo-9,10-dihydroanthracene-2-sulfonate], the melting point is more than 300 °C.

Take `Nc1c(S(=O)(=O)[O-])cc(Nc2cccc(CO)c2)c2c1C(=O)c1ccccc1C2=O.[Na+]` [Compound 28, Sodium 1-amino-4-(3-(hydroxymethyl)phenylamino)-9,10-dioxo-9,10-dihydroanthracene-2-sulfonate]: the melting point was more than 300 °C. In addition, the inhibition at 2 µM at human NTPDase1 was -2%. For the same compound, the inhibition at 2 µM on human NTPDase2 turned out to be 7%. At human NTPDase3, the inhibition at 2 µM is -9%. For the same compound, the inhibition at 2 µM on human NTPDase8 worked out at 1%.

As for `Cc1ccc(Sc2ccc(Nc3cc(S(=O)(=O)O)c(N)c4c3C(=O)c3ccccc3C4=O)cc2)cc1C` [Compound 51], the results for the inhibition at 2 µM on human NTPDase1, on human NTPDase3 and at human NTPDase8 were 51%, 44% and 27%, respectively. Also, on human NTPDase2, the IC50 is 832 ± 53 nM.

On to `Nc1c(S(=O)(=O)O)cc(Nc2cccc(C(=O)O)c2)c2c1C(=O)c1ccccc1C2=O` [Compound 26], for which the figures for the inhibition at 2 µM at human NTPDase1, on human NTPDase2 and on human NTPDase8 were -17%, 2% and -17%, respectively. Besides, on human NTPDase3 (read-out: IC50 ± SEM, NTPDase3), the IC50 stood at 3100 ± 450 nM.

As to `O=C(O)c1cc(Nc2cc(S(=O)(=O)O)cc3c2C(=O)c2ccccc2C3=O)ccc1O` [Compound 58], the inhibition at 2 µM at human NTPDase1 was determined as 1%; on human NTPDase2, 5%; on human NTPDase3 it was 32%; on human NTPDase8 it was 5%.

Consider `Nc1c(S(=O)(=O)O)cc(Nc2ccc(Oc3ccc(Br)cc3)cc2)c2c1C(=O)c1ccccc1C2=O` [Compound 46], for which the inhibition at 2 µM on human NTPDase1 was 33%; on human NTPDase3, 21%; on human NTPDase8, 10%. Also, the 50% inhibitory concentration (IC50) on human NTPDase2 stood at 1730 ± 290 nM.

With `CCc1cccc(Nc2cc(C)c(N)c3c2C(=O)c2ccccc2C3=O)c1` [Compound 56], the inhibition at 2 µM on human NTPDase1 is -3%; at human NTPDase2, 6%; at human NTPDase3, -1%; at human NTPDase8 it was -3%.

The term IC50 denotes the concentration that inhibits the measured activity by half. As a reminder, the melting point is the temperature, or range, at which the solid turns liquid.
